Holding throughout (assay): Log reduction test of preservative agent and PGC in water matrices (drop plate), Example 3
Holding throughout (type): cell-based

The subject of assay [1] is Candida albicans ATCC 10231/DSM 1386. Conditions: PGC 0 ppm; for Log reduction: contact time 5 min, water. The method, then:
(§1) Bacterial and yeast strains were kept cryofrozen at −80° C.; before use, they were sub-cultured onto tryptone soya agar (Bacteria) and malt extract agar (yeast), and incubated at the appropriate temperature and time.
(§2) A test suspension was then created for each the bacteria and yeast by adding loopfuls of organism to sterile distilled water and adjusting the cell concentration to between 1×10^8 and 5×10^9 CFU/ml for bacteria, and 1×10^6 and 5×10^7 CFU/ml for yeast. This was achieved using the data from a calibration curve generated by a spectrophotometer at a wavelength of 620 nm.
(§3) For each organism tested, 1 g of each preservative agent and PGC composition sample was prepared in sterile distilled water.
(§4) Each test sample was prepared by inoculating 1 ml aliquot of the test organism suspension into 1 ml of test sample.
(§5) The combination was then mixed. Each test mixture was sampled and tested at a defined time point after inoculation. The contact times used in this study are detailed in Table 7 above.
(§6) Upon reaching the specified contact time the test mixture was deactivated by adding a 100 μl of test mixture into 900 μl of neutralizing broth and the whole solution was mixed. The solution was left for 5 minutes to ensure the action of the preservative agent was effectively neutralized. Subsequent dilutions were prepared by adding 100 μl into 900 μl of neutralizing broth.
(§7) For each dilution prepare drop plates using appropriate agar and incubate at the appropriate temperature and time as in Table 5.
(§8) Used the drop plate technique.
(§9) Prepare agar plates by drying for 45 min-1 hour in a laminar flow at 20-25° C. Aliquot 0.025 ml drops onto the agar surface for each sample dilution. Allow drops to dry and incubate appropriately.
(§10) Plates were plates were prepared in sextuplicate for each for each sample dilution.
(§11) [formula] • Where • d1 is sum of viable count values from 6 drops • This was then multiplied by 40 to establish cfu/ml; Enumeration and Calculation of T (Test Sample)
(§12) [formula] • Where • d1 is sum of viable count values from 6 drops • This was then multiplied by 40 to establish cfu/ml;
(§13) To calculate the final log reduction the following calculation was used: Log 10 N−log 10 T=log reduction

The test system of assay [2] is Pluralibacter gergoviae ATCC 33028/DSM 9245. The note with it: PGC 0 ppm; for Log reduction: contact time 5 min, water. The method, then: as §1, §2, §3, §4, §5, §6, §7, §8, §9, §10, §11, §12, §13
The subject of assay [3] is Aspergillus brasiliensis ATCC 16404/NCPF 2275. The note with it: PGC 0 ppm. As for the experimental part:
A test suspension was then created in tryptone buffered saline and adjusting the cell concentration to between 1×10^5 and 5×10^6 CFU/ml.
as §3, §4, §5, §6, §7, §8, §9, §10, §11, §12, §13

The mark [4] stands for this setting: Didecyl dimethyl ammonium chloride 10 ppm.
Where [5] appears, read: Didecyl dimethyl ammonium chloride 20 ppm.
Setting [6] is: Didecyl dimethyl ammonium chloride 30 ppm.
[7] abbreviates: Didecyl dimethyl ammonium chloride 40 ppm.
Where [8] appears, read: Didecyl dimethyl ammonium chloride 50 ppm.

The structures appear in SMILES notation.

Turning to `O=c1[nH]sc2ccccc12` [Benzisothiazolinone], the log reduction in assay [1] (Benzisothiazolinone 50 ppm), in assay [1] (Benzisothiazolinone 100 ppm), in assay [1] (Benzisothiazolinone 250 ppm), in assay [1] (Benzisothiazolinone 500 ppm), in assay [1] (Benzisothiazolinone 1000 ppm) and in assay [2] (Benzisothiazolinone 12.5 ppm) was 0.00 each time. The log reduction in assay [2] (Benzisothiazolinone 25 ppm) is 0.00; in assay [2] (Benzisothiazolinone 50 ppm), 0.00; in assay [2] (Benzisothiazolinone 100 ppm) it was 0.03; in assay [2] (Benzisothiazolinone 200 ppm), 1.21; in assay [3] (Benzisothiazolinone 50 ppm) it was −0.03; in assay [3] (Benzisothiazolinone 100 ppm), 0.17. Besides, the figures for the log reduction in assay [3] (Benzisothiazolinone 250 ppm), in assay [3] (Benzisothiazolinone 500 ppm) and in assay [3] (Benzisothiazolinone 1000 ppm) were 0.14, 0.24 and 0.28, respectively.

For `OCc1ccccc1` [Benzyl Alcohol], the log reduction in assay [2] (Benzyl Alcohol 500 ppm) is recorded as 0.00; in assay [2] (Benzyl Alcohol 1000 ppm), 1.24; in assay [2] (Benzyl Alcohol 2000 ppm), 1.57; in assay [2] (Benzyl Alcohol 3000 ppm) it was 2.04; in assay [2] (Benzyl Alcohol 4000 ppm), 4.04.

As for `CCCCCCCCCCCCN(CCCN)CCCN` [Bis (3-aminopropyl) dodecylamine], the Log reduction was 3.14 in assay [1] (Bis (3-aminopropyl) dodecylamine 10 ppm); >4.44 in assay [1] (Bis (3-aminopropyl) dodecylamine 20 ppm); >4.44 in assay [1] (Bis (3-aminopropyl) dodecylamine 40 ppm); >4.44 in assay [1] (Bis (3-aminopropyl) dodecylamine 60 ppm); >4.44 in assay [1] (Bis (3-aminopropyl) dodecylamine 80 ppm); 0.01 in assay [2] (Bis (3-aminopropyl) dodecylamine 5 ppm). Besides, the Log reduction in assay [2] (Bis (3-aminopropyl) dodecylamine 12.5 ppm) was 0.00; in assay [2] (Bis (3-aminopropyl) dodecylamine 25 ppm), 2.00; in assay [2] (Bis (3-aminopropyl) dodecylamine 50 ppm) it was >5.52; in assay [2] (Bis (3-aminopropyl) dodecylamine 100 ppm), >5.52.

As for `CC(=O)C1C(=O)C=C(C)OC1=O` (stereo not drawn) [Dehydroacetic acid], the log reduction turned out to be 0.00 in assay [1] (Dehydroacetic acid 1000 ppm); 0.00 in assay [1] (Dehydroacetic acid 2000 ppm); 0.00 in assay [1] (Dehydroacetic acid 3000 ppm); 0.23 in assay [1] (Dehydroacetic acid 4000 ppm); 0.52 in assay [1] (Dehydroacetic acid 5000 ppm).

`CCCCCCCCCC[N+](C)(C)CCCCCCCCCC.[Cl-]` [Didecyl dimethyl ammonium chloride]: the Log reduction in assay [1] (setting [4]) is given as 1.07; in assay [1] (setting [5]), 1.01; in assay [1] (setting [6]), 1.33; in assay [1] (setting [7]), 2.43; in assay [1] (setting [8]) it was >4.52. The log reduction in assay [3] (setting [4]) is given as 1.01; in assay [3] (setting [5]), 2.44; in assay [3] (setting [6]) it was >4.05; in assay [3] (setting [7]), >4.05; in assay [3] (setting [8]) it was >4.05.

With `CC(O)C(=O)O` (stereo not drawn) [Lactic Acid], the log reduction in assay [2] (Lactic Acid 200 ppm) is listed as 0.00; in assay [2] (Lactic Acid 500 ppm) it was 0.00; in assay [2] (Lactic Acid 1000 ppm), 2.08; in assay [2] (Lactic Acid 1500 ppm) it was 3.67; in assay [2] (Lactic Acid 2000 ppm) it was 4.49; in assay [3] (Lactic Acid 100 ppm), 0.06. Further, the log reduction in assay [3] (Lactic Acid 250 ppm) is 0.12; in assay [3] (Lactic Acid 500 ppm), 0.05; in assay [3] (Lactic Acid 1000 ppm), 0.08; in assay [3] (Lactic Acid 2500 ppm), 0.15.

For `O=C([O-])c1ccccc1.[Na+]` [Sodium Benzoate], the log reduction in assay [1] (Sodium Benzoate 10000 ppm) turned out to be 0.00; in assay [1] (Sodium Benzoate 20000 ppm) it was 0.00; in assay [1] (Sodium Benzoate 30000 ppm), 0.00; in assay [1] (Sodium Benzoate 40000 ppm), 0.00; in assay [1] (Sodium Benzoate 50000 ppm), 2.06; in assay [2] (Sodium Benzoate 2000 ppm) it was 0.00. Also, the log reduction in assay [2] (Sodium Benzoate 5000 ppm) was found to be 0.00; in assay [2] (Sodium Benzoate 10000 ppm), 0.00; in assay [2] (Sodium Benzoate 20000 ppm) it was 0.46; in assay [2] (Sodium Benzoate 30000 ppm), 1.40; in assay [3] (Sodium Benzoate 10000 ppm) it was 0.17; in assay [3] (Sodium Benzoate 20000 ppm), 0.50. Besides, the log reduction in assay [3] (Sodium Benzoate 30000 ppm) amounted to 0.70; in assay [3] (Sodium Benzoate 40000 ppm), 1.32; in assay [3] (Sodium Benzoate 50000 ppm), 1.34.

Regarding `C/C=C/C=C/C(=O)O` [Sorbic Acid], the log reduction is 0.00 in assay [2] (Sorbic acid 100 ppm); 0.00 in assay [2] (Sorbic acid 200 ppm); 0.00 in assay [2] (Sorbic acid 300 ppm); 0.58 in assay [2] (Sorbic acid 400 ppm); 1.38 in assay [2] (Sorbic acid 500 ppm).

The values are drawn from patent US12605318B2, “Synergistic preservative/personal care composition containing an alkylene glycol ester” (priority 2020, dated 2026).
